Data on 36 compounds can be found in patent publication US8937167B2 (Washington University, priority 2009, dated 2015).

Molecules are shown by their SMILES. Read-outs that look alike come from different tables or passages of the source.

The term EC90 denotes the concentration needed for an effect of 90%.

The assay addresses FimH (Escherichia coli, UniProt Q1R2J4). To be noted: for HAI Titer EC>50: Table 21.
Where [1] appears, read: Table 19, Examples 30-36 numbering.
[2] abbreviates: Table 18, Examples 30-36 numbering.
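Also: hemagglutination inhibition of guinea pig erythrocytes agglutinated by type 1 piliated uropathogenic E. coli via FimH mannose binding, quantified through serial dilutions of compound.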

Experimental: In some embodiments, activity of the compound is measured using hemmagglutination titer of guinea pig red blood cells. Hemagglutination of guinea pig red blood cells by type1 piliated UPEC is dependent upon FimH mannose binding ability and serial dilutions allow a quantitative analysis.
Biological activity against FimH was evaluated using a guinea pig red blood cell-based hemagglutination (HA) assay (ref) in which the concentration of the mannoside on reducing agglutination by 50% was used as the primary endpoint (50% HA titer).
Hemagglutination of guinea pig red blood cells by type1 piliated UPEC is dependent upon FimH mannose binding ability. Serial dilutions allow a quantitative analysis using this assay.
Hemagglutination assays for mannose-sensitive agglutination of guinea pig red blood cells were performed as previously described.

On to `CN(C)C(=NCCNC(=O)c1cccc(-c2ccc(OC3OC(CO)C(O)C(O)C3O)cc2)c1)N(C)C` (stereo not drawn) [Compound 3ZFH270, N-[2-[bis(dimethylamino)methyleneamino]ethyl]-3-[4-[3,4,5-trihydroxy-6-(hydroxymethyl)tetrahydropyran-2-yl]oxyphenyl]benzamide], for which the “HAI Titer EC>90” value amounted to 2.000 µM.
On the same count and under the same terms, the figure for `CNC(=O)c1cccc(-c2ccc(OC3OC(CO)C(O)C(O)C3O)cc2C(=O)OC)c1` (stereo not drawn) [Compound 2ZFH265, methyl 2-[3-(methylcarbamoyl)phenyl]-5-[3,4,5-trihydroxy-6-(hydroxymethyl)tetrahydropyran-2-yl]oxy-benzoate] is 2.000 µM; for `CC(=O)Nc1ccccc1OC1OC(CO)C(O)C(O)C1O` (stereo not drawn) [Compound 1ZFH95, N-[2-[3,4,5-trihydroxy-6-(hydroxymethyl)tetrahydropyran-2-yl]oxyphenyl]acetamide] it is 125.000 µM.
On to `COC(=O)c1cncc(-c2ccc(O[C@H]3O[C@H](CO)[C@@H](O)[C@H](O)[C@@H]3O)cc2)c1` [Compound 12b, Methyl 5-[4-[(2R,3S,4S,5S,6R)-3,4,5-trihydroxy-6-(hydroxymethyl)tetrahydropyran-2-yl]oxyphenyl]pyridine-3-carboxylate], for which, under setting [1], the “HAI Titer EC>90” value was 0.19 µM.
As for `OCc1ccccc1-c1ccc(OC2OC(CO)C(O)C(O)C2O)cc1` (stereo not drawn) [Compound 14g], for the setting “ortho 14g relative to meta 14h”, the “fold less potent in HA titer” value is given as “over 5 fold”. The EC50 (read-out: 50% HA titer, Example 6 numbering) was 16 µM. In addition, the EC90 (read-out: HA 50% titer EC90, Table 12, Example 6 numbering) worked out at 16 µM.
With `O=C(NCC1O[C@@H](CO)[C@@H](O)[C@H](O)[C@H]1O)c1ccc(Br)cc1` (stereo partly drawn) [Compound 4ZFH123, 4-bromo-N-[[(3R,4R,5S,6S)-3,4,5-trihydroxy-6-(hydroxymethyl)tetrahydropyran-2-yl]methyl]benzamide], the “HAI Titer EC>90” value came out at 16.000 µM. Besides, where the note is “ZFH/JWJ codes”, the “HAI Titer EC>50” value was determined as 16.000 µM. Further, the “HAI Titer EC>90” value (Table 22, ZFH/JWJ codes) turned out to be 16.000 µM.
For the compound `N#Cc1ccc(-c2ccc(OC3OC(CO)C(O)C(O)C3O)cc2)cc1` (stereo not drawn) [Compound 3ZFH70, 4-[4-[3,4,5-trihydroxy-6-(hydroxymethyl)tetrahydropyran-2-yl]oxyphenyl]benzonitrile], the “HAI Titer EC>90” value is 8.000 µM.
Regarding `O=C(NCCO)c1cccc(-c2ccc(O[C@H]3O[C@H](CO)[C@@H](O)[C@H](O)[C@@H]3O)cc2)c1` [Compound 10a, N-(2-Hydroxyethyl)-3-[4-[(2R,3S,4S,5S,6R)-3,4,5-trihydroxy-6-(hydroxymethyl)tetrahydropyran-2-yl]oxyphenyl]benzamide], under setting [2], the “HAI Titer EC>90” value was 0.50 µM.
With `OCC1OC(Oc2ccc(Br)cc2)C(O)C(O)C1O` (stereo not drawn) [Compound 2ZFH46, 2-(4-bromophenoxy)-6-(hydroxymethyl)tetrahydropyran-3,4,5-triol], the “HAI Titer EC>90” value worked out at 32.000 µM.
In the case of `COC(=O)c1csc(-c2ccc(O[C@H]3O[C@H](CO)[C@@H](O)[C@H](O)[C@@H]3O)cc2)c1` [Compound 13d], the “HAI Titer EC>90” value under setting [1] came out at 2.0 µM.
Take `CCCCO[C@H]1O[C@H](CO)[C@@H](O)[C@H](O)[C@@H]1O` [butyl-α-D-mannoside, reference compound]: the 90% effect concentration (EC90) (read-out: HAI Titer EC90) is 125 µM.
On to `OCC1OC(Oc2ccc3ccccc3c2)C(O)C(O)C1O` (stereo not drawn) [Compound 1ZFH185, 2-(hydroxymethyl)-6-(2-naphthyloxy)tetrahydropyran-3,4,5-triol], for which the “HAI Titer EC>90” value came to 6.000 µM.
In the case of `CC(=O)Nc1ccc(-c2ccc(OC3OC(CO)C(O)C(O)C3O)cc2)cc1` (stereo not drawn) [Compound 4ZFH277], the “HAI Titer EC>50” value (ZFH/JWJ codes) worked out at 1.000 µM.
Turning to `O=[N+]([O-])c1cccc(OC2OC(CO)C(O)C(O)C2O)c1` (stereo not drawn) [Compound 2ZFH100, 2-(hydroxymethyl)-6-(3-nitrophenoxy)tetrahydropyran-3,4,5-triol], the “HAI Titer EC>90” value was 16.000 µM.
On to `O=C(Nc1ccncc1)c1cccc(-c2ccc(OC3OC(CO)C(O)C(O)C3O)cc2)c1` (stereo not drawn) [Compound 3ZFH256, N-(4-pyridyl)-3-[4-[3,4,5-trihydroxy-6-(hydroxymethyl)tetrahydropyran-2-yl]oxyphenyl]benzamide], for which the “HAI Titer EC>90” value was determined as 0.25 µM.
On to `COC(=O)c1cccc(-c2ccc(OC3O[C@@H](CO)[C@@H](O)[C@H](O)[C@H]3O)c(F)c2)c1` (stereo partly drawn) [Compound 4ZFH220, methyl 3-[3-fluoro-4-[(3R,4S,5S,6S)-3,4,5-trihydroxy-6-(hydroxymethyl)tetrahydropyran-2-yl]oxy-phenyl]benzoate], for which the “HAI Titer EC>90” value is 0.750 µM. Further, the “HAI Titer EC>50” value (ZFH/JWJ codes) came out at 0.750 µM. For the same compound, the “HAI Titer EC>90” value (Table 22, ZFH/JWJ codes) is 0.750 µM.
For the compound `OC[C@@H]1OC(Oc2ccc(-c3ccc4ccncc4c3)cc2)[C@H](O)[C@@H](O)[C@@H]1O` (stereo partly drawn) [Compound 4ZFH275, (2S,3S,4S,5R)-2-(hydroxymethyl)-6-[4-(7-isoquinolyl)phenoxy]tetrahydropyran-3,4,5-triol], the “HAI Titer EC>90” value turned out to be 0.750 µM. The “HAI Titer EC>50” value (ZFH/JWJ codes) came to 0.750 µM. Where the note is “Table 22, ZFH/JWJ codes”, the “HAI Titer EC>90” value turned out to be 0.750 µM.
`CS(=O)(=O)Nc1ccccc1-c1ccc(OC2OC(CO)C(O)C(O)C2O)cc1` (stereo not drawn) [Compound 3ZFH163, N-[2-[4-[3,4,5-trihydroxy-6-(hydroxymethyl)tetrahydropyran-2-yl]oxyphenyl]phenyl]methanesulfonamide]: the “HAI Titer EC>90” value worked out at 12.000 µM.
With `COC(=O)c1ccc(-c2ccc(O[C@H]3O[C@H](CO)[C@@H](O)[C@H](O)[C@@H]3O)cc2)s1` [Compound 13b, Methyl 5-[4-[(2R,3S,4S,5S,6R)-3,4,5-trihydroxy-6-(hydroxymethyl)tetrahydropyran-2-yl]oxyphenyl]thiophene-2-carboxylate], the “HAI Titer EC>90” value under setting [1] was 1.0 µM.
On to `O=C(Nc1cccnc1)c1cccc(-c2ccc(OC3OC(CO)C(O)C(O)C3O)cc2)c1` (stereo not drawn) [Compound 3ZFH265, N-(3-pyridyl)-3-[4-[3,4,5-trihydroxy-6-(hydroxymethyl)tetrahydropyran-2-yl]oxyphenyl]benzamide], for which the “HAI Titer EC>90” value turned out to be 0.375 µM.
Take `O=C(NCCCCOC1OC(CO)C(O)C(O)C1O)c1ccc(-c2c3ccc(=O)cc-3oc3cc(O)ccc23)c(C(=O)O)c1` (stereo not drawn) [Compound 1ZFH134B, 2-(3-hydroxy-6-oxo-xanthen-9-yl)-5-[4-[3,4,5-trihydroxy-6-(hydroxymethyl)tetrahydropyran-2-yl]oxybutylcarbamoyl]benzoic acid]: the “HAI Titer EC>90” value is 125.000 µM.
As to `NC(=O)Nc1csc(-c2ccc(OC3OC(CO)C(O)C(O)C3O)cc2)c1` (stereo not drawn) [Compound 4ZFH303], under “ZFH/JWJ codes”, the “HAI Titer EC>50” value was found to be 1.000 µM.
Take `COC(=O)c1cccc(-c2ccc(O[C@H]3O[C@H](CO)[C@@H](O)[C@H](O)[C@@H]3O)c(F)c2)c1` [Compound 4a, Methyl 3-[3-fluoro-4-[(2R,3S,4S,5S,6R)-3,4,5-trihydroxy-6-(hydroxymethyl)tetrahydropyran-2-yl]oxy-phenyl]benzoate]: the “HAI Titer EC>90” value (Table 17, Examples 30-36 numbering) worked out at 0.75 µM.
As for `COc1ccc(OC2OC(CO)C(O)C(O)C2O)cc1` (stereo not drawn) [Compound 2ZFH176, 2-(hydroxymethyl)-6-(4-methoxyphenoxy)tetrahydropyran-3,4,5-triol], the “HAI Titer EC>90” value came out at 8.000 µM.
Still for that read-out and setting: the figure for `O=[N+]([O-])c1ccc(-c2ccc(OC3OC(CO)C(O)C(O)C3O)cc2)cc1` (stereo not drawn) [Compound 3ZFH72, 2-(hydroxymethyl)-6-[4-(4-nitrophenyl)phenoxy]tetrahydropyran-3,4,5-triol] is 2.000 µM; for `COc1ccccc1-c1ccc(OC2OC(CO)C(O)C(O)C2O)cc1` (stereo not drawn) [Compound 3ZFH188, 2-(hydroxymethyl)-6-[4-(2-methoxyphenyl)phenoxy]tetrahydropyran-3,4,5-triol] it is 2.000 µM.
With `CNS(=O)(=O)c1ccccc1-c1ccc(OC2OC(CO)C(O)C(O)C2O)cc1` (stereo not drawn) [Compound 3ZFH176, N-methyl-2-[4-[3,4,5-trihydroxy-6-(hydroxymethyl)tetrahydropyran-2-yl]oxyphenyl]benzenesulfonamide], the “HAI Titer EC>90” value is 4.000 µM.
For the compound `COc1cccc(-c2ccc(OC3OC(CO)C(O)C(O)C3O)cc2)c1` (stereo not drawn) [Compound 3ZFH190, 2-(hydroxymethyl)-6-[4-(3-methoxyphenyl)phenoxy]tetrahydropyran-3,4,5-triol], the “HAI Titer EC>90” value is 1.500 µM.
On the same count and under the same terms, in the case of `COC(=O)c1cccc(OC2OC(CO)C(O)C(O)C2O)c1` (stereo not drawn) [Compound 1ZFH101, methyl 3-[3,4,5-trihydroxy-6-(hydroxymethyl)tetrahydropyran-2-yl]oxybenzoate] it was 6.000 µM.
In the case of `NCCNC(=O)c1cccc(-c2ccc(O[C@H]3O[C@H](CO)[C@@H](O)[C@H](O)[C@@H]3O)cc2)c1` [Compound 10b, N-(2-Aminoethyl)-3-[4-[(2R,3S,4S,5S,6R)-3,4,5-trihydroxy-6-(hydroxymethyl)tetrahydropyran-2-yl]oxyphenyl]benzamide], the “HAI Titer EC>90” value under setting [2] was 3.0 µM. Also, the “fold drop in HAI activity” value (relative to methyl amide 2) was determined as 6 fold.
For `COC1OC(CO)C(O)C(O)C1O` (stereo not drawn) [Methylaman, reference compound], the EC50 (read-out: HA 50% titer, Example 6 numbering) is more than 1000 µM.
As to `COC(=O)c1cccc(-c2ccc(NC(=O)C3OC(CO)C(O)C(O)C3O)cc2)c1` (stereo not drawn) [Compound 4ZFH89, methyl 3-[4-[[3,4,5-trihydroxy-6-(hydroxymethyl)tetrahydropyran-2-carbonyl]amino]phenyl]benzoate], the “HAI Titer EC>90” value stood at 16.000 µM.
`O=[N+]([O-])c1ccc(COC2OC(CO)C(O)C(O)C2O)cc1` (stereo not drawn) [Compound 1ZFH152, 2-(hydroxymethyl)-6-[(4-nitrophenyl)methoxy]tetrahydropyran-3,4,5-triol]: the “HAI Titer EC>90” value turned out to be 60.000 µM.
Same read-out and setting: in the case of `OCC1OC(Oc2ccc(-c3cccc(O)c3)cc2)C(O)C(O)C1O` (stereo not drawn) [Compound 3ZFH44, 2-(hydroxymethyl)-6-[4-(3-hydroxyphenyl)phenoxy]tetrahydropyran-3,4,5-triol] it was 4.000 µM; in that of `Cc1ccc(OC2OC(CO)C(O)C(O)C2O)cc1` (stereo not drawn) [Compound 2ZFH175, 2-(hydroxymethyl)-6-(4-methylphenoxy)tetrahydropyran-3,4,5-triol], 8.000 µM.
`CNC(=O)c1cccc(-c2ccc(CC3OC(CO)C(O)C(O)C3O)cc2)c1` (stereo not drawn) [Compound 5ZFH49]: the “HAI Titer EC>50” value (ZFH/JWJ codes) came out at 1.000 µM.
